Laboratory results taken from patent US5015647A, “Method for treating viral infections” (Burroughs Wellcome Co., priority 1989, dated 1991).

Key:
[1] = molecular target: T1, adenosine (purine) receptors (Cavia porcellus, UniProt P47745); test: guinea pig ileum twitch test, antagonism of purine receptors (agonist 2-chloroadenosine); conditions: slope in parentheses after pA2
T1 construct: Ilea were removed from sacrificed guinea pigs and placed in organ baths; from tissue; host or cells: guinea pig ileum
T1 sequence (P47745 1-326): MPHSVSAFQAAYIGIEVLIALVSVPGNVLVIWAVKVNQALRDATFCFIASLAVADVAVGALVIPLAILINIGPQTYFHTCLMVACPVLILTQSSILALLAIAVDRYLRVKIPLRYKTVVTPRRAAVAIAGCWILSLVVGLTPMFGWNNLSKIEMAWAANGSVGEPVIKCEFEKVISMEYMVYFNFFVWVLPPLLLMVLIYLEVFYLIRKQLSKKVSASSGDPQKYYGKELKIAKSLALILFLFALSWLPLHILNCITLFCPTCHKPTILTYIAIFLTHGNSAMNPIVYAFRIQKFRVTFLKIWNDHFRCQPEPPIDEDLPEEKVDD
Experimental: Accordingly, a representative number of compounds of the present invention were tested for their ability to antagonise the purine receptors using the guinea pig ileum test system.
Ilea were removed from sacrificed guinea pigs and placed in organ baths containing oxygenated Krebs-Henseleit buffer. After equilibration, the ilea were stimulated to contract (twitch contraction) using an electrical field-stimulus of 0.1 Hz, 0.5 ms duration and maximal voltage. Under these conditions, the twitch contraction results from the release of acetylcholine.
Concentration response curves to the purine agonist, 2-chloroadenosine, were determined first in the absence and then in the presence of multiple concentrations of the compounds of the invention. One concentration of each compound was used per tissue. Quantification of purine receptor antagonism was accomplished using the Schild regression technique, i.e. plots of log (dose-ratio-1) vs log compound concentration, and the pA2 determined by regression of the data points to the x-intercept, where log (dose-ratio-1) is zero.

HIV = test: anti-HIV activity, in-vitro assay system; type: cell-based; design: key to ED50 (expressed as active (+) or very active (++)): +: active; ++: very active; conditions: for EC50: Human immunodeficiency virus 1, 50% effective dose estimated, read-out: μM ED50; for EC50 / ED50 (expressed as active (+) or very active (++)): in vitro anti-HIV; for ED50 (expressed as active (+) or very active (++)): grade
Experimental: The anti-HIV activity of various compounds was tested using an in-vitro assay system as described in H Mitsuya et al; (Proc Natl. Acad.Sci. USA Vol 82 pp 7096-7100, October 1985)

Compound | slope (Schild regression) [1] | EC50 (HIV) | ED50 (expressed as active (+) or very active (++)) (HIV) | antiviral / anti-retroviral activity, in words (HIV; against AIDV / retroviruses, statement in words, listed as compound 14)
Cn1c(=O)c2[nH]cnc2n(C)c1=O [THEOPHYLLINE, 1,3-dimethylxanthine, reference compound] | 1.1 |  |  | 
CCCn1c(=O)c2nc(-c3ccc(/C=C/C(=O)O)cc3)[nH]c2n(Cc2ccccc2)c1=O [Example 26, (E)-4-(3-Benzyl-1,2,3,6-tetrahydro-2,6dioxo-1-propyl-9H-purin-8-yl)cinnamicacid] |  | 30 µM | + | 
CCCCn1c(=O)c2nc(-c3ccc(/C=C/C(=O)O)cc3)[nH]c2n(CCCC)c1=O [Example 14, (E)-4-(1,3-dibutyl-1,2,3,6-tetrahydro-2,6-dioxo-9H-purin-8-yl)cinnamic acid] | 1.0 | 30 µM | + | 
O=C(O)/C=C/c1ccc(-c2nc3c(=O)n(Cc4ccccc4)c(=O)n(Cc4ccccc4)c3[nH]2)cc1 [Example 15, (E)-4-(1,3-dibenzyl-1,2,3,6-tetrahydro-2,6-dioxo-9H-purin-8yl) cinnamic acid] | 0.9 | 3 to 15 µM | ++ | especially potent activity against AIDV
CCCn1c(=O)c2nc(-c3ccc(/C=C/C(=O)O)cc3)[nH]c2n(CCC)c1=O [Example 6, (E)-4-(1,2,3,6-tetrahydro-2,6-dioxo-1,3-dipropyl-9H-purin-8-yl)cinnamic acid] | 0.9 |  |  | 
Cn1c(=O)c2nc(-c3ccc(/C=C/C(=O)O)cc3)[nH]c2n(Cc2ccccc2)c1=O [Example 18, (E)-4-(3-benzyl-1,2,3,6-tetrahydro-1-methyl-2,6-dioxo-9H-purin-8yl) cinnamic acid] | 0.9 |  |  | 
CCCn1c(=O)n(C)c(=O)c2nc(-c3ccc(/C=C/C(=O)O)cc3)[nH]c21 [Example 11, (E)-4-(1,2,3,6-tetrahydro-1-methyl-2,6-dioxo-3-propyl-9H-purin-8-yl)cinnamic acid] | 1.0 |  |  | 
CC(C)Cn1c(=O)c2nc(-c3ccc(/C=C/C(=O)O)cc3)[nH]c2n(CC(C)C)c1=O [Example 19, (E)-4-(1,2,3,6-tetrahydro-1,3-diisobutyl-2,6-dioxo-9H-purin-8-yl)cinnamic acid] | 1.0 |  |  | 
CCCn1c(=O)n(Cc2ccccc2)c(=O)c2nc(-c3ccc(/C=C/C(=O)O)cc3)[nH]c21 [Example 25, (E)-4-(1-Benzyl-1,2,3,6-tetrahydro-2,6-dioxo-3-propyl-9H-purin-8-yl)cinnamic acid] |  | 30 µM | + | 
